# Test results published in patent US4435392A, “2,5-Benzodiazocine derivatives and salts thereof, as well as pharmaceutical agent comprising as effective component at least one of the derivatives and salts” (Sanwa Kagaku Kenkyusho Co. Ltd., priority 1982, dated 1984).
# What was measured:
# dd-type male mice [1] = assay: Effect on Sleep (pentobarbital sleeping time); assay type: in vivo; details: pentobarbital 40 mg/kg
# dd-type male mice [2] = assay: Effect on Sleep (pentobarbital sleeping time); assay type: in vivo; details: pentobarbital 40 mg/kg; remark: listed apart in the source
# Procedure: The dd-type male mice of 16 to 24 g were classified into groups, each having 10 mice. To each mouse, a testing agent was dosed through abdominal cavity and after having lapsed 30 minutes from the dosage, 40 mg/kg of pentobarbital was also dosed through abdominal cavity to measure a time of sleeping period. The sleeping time in question designates a time period, wherein a facing reflex disappears. Judgements were given based on following 7 measures.
# dd-male mice [3] = assay: Analgetic action, Acetic Acid Stretching Method; assay type: in vivo; details: Mus musculus, po, orally given 30 minutes before acetic acid, hydrochloride
# Procedure: (ii) Acetic Acid Stretching Method
# The dd-male mice of 17 to 23 g were classified into groups, each having 10 mice, and 0.7% aqueous solution of acetic acid was dosed into abdominal cavity for each mouse in a ratio of 10 ml/kg and then a stretching condition was observed over 5 minutes of having lapsed 10 to 15 minutes from the dosage. The test was repeated 4 times to obtain total measured value and an inhibition ratio was measured from number of stretching actions. A judgement has been given in "Yes" or "No" system.
# According to the Richfield and Wilcoxson Methods, ED50, LD50 and 95% confidence limit were calculated and compared the same for each testing agents and Control.
# Each testing agent and control was orally given 30 minutes before the dosage of the acetic acid in a ratio of 100 mg/10 ml/kg.
# dd-male mice [4] = assay: Analgetic action, Haffner's Method (tail root clamping); assay type: in vivo; details: Mus musculus, ip, abdominal cavity, hydrochloride
# Procedure: In accordance with a usual manner, dd-male mice of 14 to 22 g were classified into groups, each having 10 mice, compounds to be tested in various concentrations were given to each mouse and then clamped a tail root of the mouse with use of Koffer clamps in each time period of having lapsed 15, 30, 45 and 60 minutes from the dosage to measure an analgetic action of the compounds by judging as "negative" when the tested mouse cries or looks back.
# Further the number of deaths was counted in each 10 mice group after having lapsed 2 hours from dosage of each testing agent into abdominal cavity and then ED50, LD50 and 95% confidence limit were calculated based on the Richfield and Wilcoxson Methods to compare the results obtained on the agents.
# Acute Toxity, rat = details: in vivo
# Procedure: (§1) The dd-type 5 weeks male mice of 21 to 26 g and Wister type 5 weeks male rats of 110 to 150 g were classified into groups, each having 10 mice or rats. After having given testing agents to the mice and rats, general conditions, number of deaths in each day and body weight changes have been observed over 7 days. An LD50 value was calculated based on total number of deaths during the 7 days testing time period, in accordance with the Richfield-Wilcoxson Method. The surviving animals were dissected to visually observe internal organs thereof.
# Wister type male rats = assay: Antipyretic Action (rectal body temperature); assay type: in vivo
# Procedure: Wister type male rats of 100 to 140 g were classified into groups, each having 4 to 5 rats. The rats were abstrained from food for 1 day and then each rat was entered in each cage. The body temperature was measured under a constant room temperature through the rectum. This body temperature measurement was carried out in 3 times before a dosage of agents as well as after lapsed 30, 60, 90, 120 and 150 minutes from the dosage.
# Judgements have been given based on following 5 measures.
# Acute Toxity, mouse = details: in vivo
# Procedure: as §1
# [5] = intravenous injectional dosage, 7 days
# [6] = in abdominal cavity 50 mg/Kg, hydrochloride
# [7] = ip, in abdominal cavity, 7 days
# [8] = in abdominal cavity 25 mg/Kg (control)
Compound,Sleep Incrementing Action (dd-type male mice [1]; oral dosage 100 mg/Kg),Sleep Incrementing Action (dd-type male mice [2]; in abdominal cavity 50 mg/Kg),ED50 (dd-male mice [3]) [mg/kg],ED50 (dd-male mice [4]) [mg/kg],"LD50 at 168 h (Acute Toxity, rat; [5]) [mg/kg]","LD50 at 168 h (Acute Toxity, rat; oral dosage, 7 days) [mg/kg]",Antipyretic Action (Wister type male rats; [6]),"LD50 at 168 h (Acute Toxity, mouse; [5]) [mg/kg]","LD50 at 168 h (Acute Toxity, mouse; [7]) [mg/kg]","LD50 at 168 h (Acute Toxity, mouse; oral dosage, 7 days) [mg/kg]",Sleep Incrementing Action (dd-type male mice [1]; oral dosage 50 mg/Kg (control)),Sleep Incrementing Action (dd-type male mice [2]; [8]),Antipyretic Action (Wister type male rats; [8]),"LD50 at 168 h (Acute Toxity, rat; po) [mg/kg]","LD50 at 168 h (Acute Toxity, mouse; ip) [mg/kg]","LD50 at 168 h (Acute Toxity, mouse; po) [mg/kg]"
"COc1ccc(C2c3ccccc3CN(CCCC(=O)c3ccc(F)cc3)CCN2C)cc1 (stereo not drawn) [Compound I-a, 5-[3-(p-fluorobenzoyl)propyl]-1,2,3,4,5,6-hexahydro-1-(p-methoxyphenyl)-2-methyl-2,5-benzodiazocine]",+++ (sleeping time was extended by 60 minutes or more in comparison with control),++ (sleeping time was extended by 30 to 60 minutes in comparison with control),40.5,18.4,20,3500,++ (showing decrease of 1° to 2 °C and obtaining at least one result of a notifiable difference of P<1%),30.1,179,1500,–,–,–,–,–,–
"CN1CCOC(c2ccccc2)c2ccccc2C1 (stereo not drawn) [Nefopam, reference compound]",–,–,–,–,18,595,–,36.8,72.4,356,-- (sleeping time was shortened by 30 to 60 minutes in comparison with control),-- (sleeping time was shortened by 30 to 60 minutes in comparison with control),++ (showing decrease of 1° to 2 °C and obtaining at least one result of a notifiable difference of P<1%),–,–,–
"COc1ccc(C2NCCN(CCCC(=O)c3ccc(F)cc3)Cc3ccccc32)cc1 (stereo not drawn) [Compound I-f, 5-[3-(p-fluorobenzoyl)propyl]-1,2,3,4,5,6-hexahydro-1-(p-methoxyphenyl)-2,5-benzodiazocine]",+++ (sleeping time was extended by 60 minutes or more in comparison with control),+++ (sleeping time was extended by 60 minutes or more in comparison with control),11.5,30.7,19.8,2890,++ (showing decrease of 1° to 2 °C and obtaining at least one result of a notifiable difference of P<1%),35.9,109,340,–,–,–,–,–,–
"CN1CCN(CCCC(=O)c2ccc(F)cc2)Cc2ccccc2C1c1ccccc1 (stereo not drawn) [Compound I-c, 5-[3-(p-fluorobenzoyl)propyl]-1,2,3,4,5,6-hexahydro-1-phenyl-2-methyl-2,5-benzodiazocine]",+++ (sleeping time was extended by 60 minutes or more in comparison with control),+++ (sleeping time was extended by 60 minutes or more in comparison with control),5.7,44.2,23.8,> 4000,++ (showing decrease of 1° to 2 °C and obtaining at least one result of a notifiable difference of P<1%),29,208,1700,–,–,–,–,–,–
"CCOC(=O)/C=C/C(=O)Nc1ccc(CCN2CCNC(c3ccccc3)c3ccccc3C2)cc1 (stereo not drawn) [Compound I-e, [5(E)]-ethyl-4-[[4-[2-(1,2,3,4,5,6-hexahydro-1-phenyl-2,5-benzodiazocine)-5-yl]ethyl]phenyl]amino-4-oxo-2-butenoate]",++ (sleeping time was extended by 30 to 60 minutes in comparison with control),-- (sleeping time was shortened by 30 to 60 minutes in comparison with control),61.1,80.3,–,–,++ (showing decrease of 1° to 2 °C and obtaining at least one result of a notifiable difference of P<1%),–,–,–,–,–,–,> 5000,> 200,938
"COc1ccc(CCN2CCN(C)C(c3ccc(OC)cc3)c3ccccc3C2)cc1 (stereo not drawn) [Compound I-b, 5-(p-methoxyphenethyl)-1,2,3,4,5,6-hexahydro-1-(p-methoxyphenyl)-2-methyl-2,5-benzodiazocine]",+++ (sleeping time was extended by 60 minutes or more in comparison with control),+++ (sleeping time was extended by 60 minutes or more in comparison with control),48.5,26.2,20.7,4090,++ (showing decrease of 1° to 2 °C and obtaining at least one result of a notifiable difference of P<1%),33,124,623,–,–,–,–,–,–
"c1ccc(C2NCCN(CC3CC3)Cc3ccccc32)cc1 (stereo not drawn) [Compound I-d, 5-cyclopropylmethyl-1,2,3,4,5,6-hexahydro-1-phenyl-2,5-benzodiazocine]",-- (sleeping time was shortened by 30 to 60 minutes in comparison with control),-- (sleeping time was shortened by 30 to 60 minutes in comparison with control),13.5,17.1,17.8,485,++ (showing decrease of 1° to 2 °C and obtaining at least one result of a notifiable difference of P<1%),18,51.6,215,–,–,–,–,–,–
